Assay results as given in patent US20070174925A1, “Treatment models and uses thereof” (priority 2003, published 2007).

Key:
[1] = tested on: zebrafish; test: DMSO tolerance of zebrafish; format: in vivo; conditions: final concentration in fish water
Description: A further advantage of zebrafish is the fact they live in water. This makes administration of candidate chemicals easy. Moreover, the inventors have discovered that zebrafish are also DMSO tolerant. This is important as many drugs are dissolved in DMSO. The inventors have established that zebrafish can tolerate 1% DMSO. Thus, a candidate drug or other test substance may be dissolved in DMSO and administered to zebrafish by adding to the fish water to give a final concentration of DMSO of at least up to 1%. This is employed in various preferred aspects and embodiments of the present invention.

[2] = tested on: larval zebrafish; test: temperature gradient assay of thermal nociception; format: in vivo; conditions: for location of fish in temperature gradient versus control fish: fish less than 10 days old, opiate 1 ug/ml or cannabinoid 5 ug/ml in water for 30 minutes at 28° C. before testing, t=10 mins
Description: 1. The ambient environment was prepared through the use of an air handling system to maintain a constant air temperature below 24° C., enabling maintenance of a stable water gradient.
2. A shallow tray was taken of dimensions 2 cm deep, 30 cm long and 20 cm wide. This was filled with oxygenated water from the aquarium, the composition of which is suitable sustain zebrafish. This water was cooled to less than the lowest temperature desired in the gradient.
3. The tray was placed on top of two heating plates: a hot plate, capable of heating to high temperatures, and a hot block. The heights of the blocks were adjusted so that when the tray is placed on top of them the tray lies flat (FIG. 1). It was important to ensure the heating surfaces were symmetrically located under the long axis of the tray to ensure equal heating of both longitudinal halves of the tray.
4. A transparent 30 cm ruler was placed on top of the tray and the boundaries of 4 quadrants marked on it: 0-7.5 cm, 7.5-15 cm, 15-22.5 cm and 22.5-30 cm (FIGS. 2 and 8). These serve to split the gradient up into areas as a means of summarizing temperature choice.
5. Aluminum foil was used to make channels for the fish to swim in. These were water tight and closed at one end and open at the other. […] The open end is necessary so that as water evaporates from the hot end the channels don't dry up. They were then placed in the water with the closed end at the cool end. They were then filled with water. The channels were in the middle of the tray, i.e. not closer to one long side of the tray than the other.
6. The hotplate and hotblock were turned on to achieve a temperature of about 40° C. maintained at the hot end, with the unheated end reaching only 24° C. To measure the temperature at each quadrant boundary, thermometers were placed near the channels at each boundary.
7. When a stable gradient was achieved, fish were taken directly from the fish room (28° C.). As much of the liquid around them as possible was removed. […]
9. At 2, 5 and 10 minutes, the number of fish in each quadrant was counted. […]

[3] = tested on: fish sensitized with DNCB; test: DNCB-induced hyperalgesia and its rescue, temperature gradient assay; format: in vivo, zebrafish; conditions: same DNCB-sensitized fish treated with an opiate and retested; t=5 mins

Row | SMILES | concentration tolerated by zebrafish [1] | location of fish in temperature gradient versus control fish [2] | distribution in gradient of DNCB-sensitized fish after treatment and retest (rescue of hyperalgesia) [3] | location of three week old fish in temperature gradient versus untreated fish ([2]; three week old fish treated with an opiate)
1 | C[S+](C)[O-] [DMSO] | 1% | – | – | –
2 | CCCCC/C=C\C/C=C\C/C=C\C/C=C\CCCC(=O)NCCO [endogenous cannabinoid, Anandamide] | – | less aversion to higher temperatures | – | –
3 | COC(=O)N1CCN(C(=O)Cc2ccc(Cl)c(Cl)c2)C(CN2CCCC2)C1.O=C(O)/C=C/C(=O)O (centres unmarked) [opiate, GR 89696 Fumerate] | – | more often found in water of a higher temperature than control fish | lose this sensitivity, and their distribution becomes randomized in the gradient | locate to regions of a higher temperature than untreated fish
